# Results published in US6352958B1, “Cycloimido-substituted benzofused heterocyclic herbicides” (FMC Corporation, priority 1997, dated 2002).
# What was measured:
# Type in all cases: in vivo
# [1] = tested on: soybean (Glycine max var. Winchester); experiment: Preemergence herbicidal activity, soybean; settings: Rate of Application 0.3 Kg/Ha, examined after 12-17 days
# [2] = tested on: wheat (Triticum aestivum var. Lew); experiment: Preemergence herbicidal activity, wheat; settings: Rate of Application 0.3 Kg/Ha, examined after 12-17 days
# [3] = tested on: field corn (Zea mays var. Pioneer 3732); experiment: Preemergence herbicidal activity, corn; settings: Rate of Application 0.3 Kg/Ha, examined after 12-17 days
# [4] = tested on: velvetleaf (Abutilon theophrasti); experiment: Preemergence herbicidal activity, velvetleaf; settings: Rate of Application 0.3 Kg/Ha, examined after 12-17 days
# [5] = tested on: morningglory (Ipomea lacunosa or Ipomea hederacea); experiment: Preemergence herbicidal activity, morningglory; settings: Rate of Application 0.3 Kg/Ha, examined after 12-17 days
# [6] = tested on: common chickweed (Stellaria media); experiment: Preemergence herbicidal activity, chickweed; settings: Rate of Application 0.3 Kg/Ha, examined after 12-17 days
# [7] = tested on: common cocklebur (Xanthium strumarium L.); experiment: Preemergence herbicidal activity, cocklebur; settings: Rate of Application 0.3 Kg/Ha, examined after 12-17 days
# [8] = tested on: blackgrass (Aloepecurus myosuroides); experiment: Preemergence herbicidal activity, blackgrass; settings: Rate of Application 0.3 Kg/Ha, examined after 12-17 days
# [9] = tested on: green foxtail (Setaria viridis); experiment: Preemergence herbicidal activity, green foxtail; settings: Rate of Application 0.3 Kg/Ha, examined after 12-17 days
# [10] = tested on: Johnsongrass (Sorghum halepense); experiment: Preemergence herbicidal activity, johnsongrass; settings: Rate of Application 0.3 Kg/Ha, examined after 12-17 days
# [11] = tested on: soybean (Glycine max var. Winchester); experiment: Postemergence herbicidal activity, soybean; settings: rate of application 0.3 Kg/Ha, rated after 12-17 days
# [12] = tested on: wheat (Triticum aestivum var. Lew); experiment: Postemergence herbicidal activity, wheat; settings: rate of application 0.3 Kg/Ha, rated after 12-17 days
# [13] = tested on: field corn (Zea mays var. Pioneer 3732); experiment: Postemergence herbicidal activity, corn; settings: rate of application 0.3 Kg/Ha, rated after 12-17 days
# [14] = tested on: velvetleaf (Abutilon theophrasti); experiment: Postemergence herbicidal activity, velvetleaf; settings: rate of application 0.3 Kg/Ha, rated after 12-17 days
# [15] = tested on: morningglory (Ipomea lacunosa or Ipomea hederacea); experiment: Postemergence herbicidal activity, morningglory; settings: rate of application 0.3 Kg/Ha, rated after 12-17 days
# [16] = tested on: common chickweed (Stellaria media); experiment: Postemergence herbicidal activity, chickweed; settings: rate of application 0.3 Kg/Ha, rated after 12-17 days
# [17] = tested on: common cocklebur (Xanthium strumarium L.); experiment: Postemergence herbicidal activity, cocklebur; settings: rate of application 0.3 Kg/Ha, rated after 12-17 days
# [18] = tested on: blackgrass (Aloepecurus myosuroides); experiment: Postemergence herbicidal activity, blackgrass; settings: rate of application 0.3 Kg/Ha, rated after 12-17 days
# [19] = tested on: green foxtail (Setaria viridis); experiment: Postemergence herbicidal activity, green foxtail; settings: rate of application 0.3 Kg/Ha, rated after 12-17 days
# [20] = tested on: Johnsongrass (Sorghum halepense); experiment: Postemergence herbicidal activity, johnsongrass; settings: rate of application 0.3 Kg/Ha, rated after 12-17 days
SMILES,PREEMERGENCE HERBICIDAL ACTIVITY (% CONTROL) SOY [1] [%],PREEMERGENCE HERBICIDAL ACTIVITY (% CONTROL) WHT [2] [%],PREEMERGENCE HERBICIDAL ACTIVITY (% CONTROL) CRN [3] [%],PREEMERGENCE HERBICIDAL ACTIVITY (% CONTROL) ABUTH [4] [%],PREEMERGENCE HERBICIDAL ACTIVITY (% CONTROL) IPOSS [5] [%],PREEMERGENCE HERBICIDAL ACTIVITY (% CONTROL) STEME [6] [%],PREEMERGENCE HERBICIDAL ACTIVITY (% CONTROL) XANPE [7] [%],PREEMERGENCE HERBICIDAL ACTIVITY (% CONTROL) ALOMY [8] [%],PREEMERGENCE HERBICIDAL ACTIVITY (% CONTROL) SETVI [9] [%],PREEMERGENCE HERBICIDAL ACTIVITY (% CONTROL) SORHA [10] [%],Postemergence herbicidal activity (% control) SOY [11] [%],Postemergence herbicidal activity (% control) WHT [12] [%],Postemergence herbicidal activity (% control) CRN [13] [%],Postemergence herbicidal activity (% control) ABUTH [14] [%],Postemergence herbicidal activity (% control) IPOSS [15] [%],Postemergence herbicidal activity (% control) STEME [16] [%],Postemergence herbicidal activity (% control) XANPE [17] [%],Postemergence herbicidal activity (% control) ALOMY [18] [%],Postemergence herbicidal activity (% control) SETVI [19] [%],Postemergence herbicidal activity (% control) SORHA [20] [%]
CC(C)c1nc2c(-n3c(=O)cc(C(F)(F)F)n(C)c3=O)c(F)cc(Cl)c2[nH]1 [Compound 368],100,100,95,100,100,100,100,95,100,100,100,100,100,100,100,100,100,100,100,100
Cn1c(C(F)(F)F)cc(=O)n(-c2c(F)cc(Cl)c3cc(CCCl)oc23)c1=O [Compound 236],100,70,95,100,100,100,100,80,100,100,100,75,90,100,100,100,100,80,100,100
Cc1nc2c(-n3c(=O)cc(C(F)(F)F)n(N)c3=O)c(F)cc(Cl)c2o1 [Compound 112],100,100,100,100,100,100,100,100,100,100,100,100,100,100,100,100,100,100,100,100
